“Also recorded” adds a separate entry of the source.
What was measured:
[1] = test system: organoid cell lines ORG1 and ORG2; assay: Carboplatin treatment of organoid cancer lines, cell viability by luminescence (Cell Titer Glow 3D); format: cell-based, human; conditions: patient-derived HGSC organoid lines, triplicates, FIG. 5
Protocol: Cell vialiability (y axis) was determined proportional to the strength of luminiscence signal (Cell Titer® Glow 3D Promega). […] Immunofluorescence analysis of the key structural and functional biomarkers confirmed that organoids match native tumor tissue in phenotype, e.g. PAX8 confirming Mullerean lineage, EpCAM, p53 and p16 (FIG. 4). All tested organoid cultures were matched in phenotype to the fragment of native tumor processed and stained in standard procedure which was used for clinical diagnosis. Ovarian cancer cancer organoids mostly lack central cavities in contrast to fallopian tube organoids which are built of polarized epithelial monolayers. This is expected as histological atypia and stratification are present already in the early stages of the carcinogenesis in the fallopian tube (Shaw et al 2009, Modern Pathology 22, 1135-1138). Panel sequencing of paired organoid culture and tissue confirmed that the tested organoids recapitulate cancer tissue composition also on the genomic level. Importantly cultures can be expanded to multi-well format to enable high throughput experimental set up.

[2] = test system: ovarian cancer stem cells; assay: Establishment of ovarian cancer organoid lines with exogenous Wnt 3a supplementation; format: cell-based, human; conditions: all established lines grew in Wnt3a-negative media
Protocol: • Adv. +++: Advanced F12 Medium+HEPES (6 ml)+Glutamax (5 ml)+5% fetal calf serum (FCS) • Adv. ++: Advanced F12 Medium+HEPES (6 ml)+Glutamax (5 ml) • Cut tissue with a scissor in small pieces and then mince further with scalpel for 3-5 minutes • Collect all fragments, incubate with 2 ml Collagenase Type 1+2 ml Collagenase type II and transfer to a 6 well plate, • Incubate fragments for 45 min at 37° C. 5% CO2, • Add 5 ml Adv +++ and transfer in to a 50 ml Falcon tube, • Vortex vigorously for 30 seconds, • Let pieces settle down, take supernatant and transfer in to a fresh tube, • Add again 5 ml Adv +++, mix with a pipette, • Let pieces settle down, take supernatant and transfer in to a fresh tube, • Centrifuge for 5 min at 400 rpm, • Discard supernatant, • Prepare 10 ml Adv +++, add 30 μl Y-27632 and 10 μl hEGF (final conc. 10 ng/ml), • Resuspend cell pellet in medium, • Seed cell in a flask, • Incubate at 5% CO2 at 37° C. and grow cells 3-5 days prior to transfer to 3D culture. […]

Row | Molecule | response to carboplatin treatment (cell viability) [1] | effect of exogenous supplementation on ovarian cancer stem cells [2]
1 | N.N.O=C([O-])C1(C(=O)[O-])CCC1.[Pt+2] [carboplatin] | differences in responsivness and kinetics; also recorded: individual patient profiles in their response | –
2 | Wnt 3a: Wnt protein, e.g. human Wnt 3a (RefSeq NP_149122) (protein, UniProt P56704 19-352, looked up) Protein Wnt-3a: SYPIWWSLAVGPQYSSLGSQPILCASIPGLVPKQLRFCRNYVEIMPSVAEGIKIGIQECQHQFRGRRWNCTTVHDSLAIFGPVLDKATRESAFVHAIASAGVAFAVTRSCAEGTAAICGCSSRHQGSPGKGWKWGGCSEDIEFGGMVSREFADARENRPDARSAMNRHNNEAGRQAIASHMHLKCKCHGLSGSCEVKTCWWSQPDFRAIGDFLKDKYDSASEMVVEKHRESRGWVETLRPRYTYFKVPTERDLVYYEASPNFCEPNPETGSFGTRDRTCNVSSHGIDGCDLLCCGRGHNARAERRREKCRCVFHWCCYVSCQECTRVYDVHTCK | – | detrimental

Source: US12655394B2, “Ovarian cancer organoid culture” (MAX-PLANCK-GESELLSCHAFT ZUR FÖRDERUNG DER WISSENSCHAFTEN …, priority 2018, dated 2026)
